Converted amounts (≈) assume the structure as drawn. Where two headings read alike, the source gives them in different places.
Tests used:
Format in all cases: cell-based
Staph. aureus (FDA 209P) = experiment: MIC, agar dilution, Staph. aureus; conditions: Staphylococcus aureus, FDA209P, 20 h, read-out: Minimum Inhibitory Concentration (MIC)
Description: (§1) The compounds of this invention were tested for antibacterial activity according to the following procedure. Nutrient broth and nutrient agar were prepared according to the conventional procedure. […] was used as a vehicle. The stock solution was prepared at 100 μg/ml of the test material in the vehicle. Two-fold dilutions were made with the vehicle and then the diluted stock solution was added to a petri dish and solidified by chilling. Test organisms were grown in the nutrient broth for 20 hours at 37° C. The hardened surface was inoculated with a loopful of the test organism solution containing 1×10^6 cells per milliliter and incubated for 20 hours at 37° C. At the end of this period, growth of the organism was observed. […] The following Table 1 summarizes the activity of representative compounds as active antibacterial agents, and compares them with the prior art compounds and the reference drug Sulbenicillin.

E. coli (NIHJ) = experiment: MIC, agar dilution, E. coli; conditions: Escherichia coli, 20 h, read-out: Minimum Inhibitory Concentration (MIC)
Description: as §1

[1] = test system: Proteus vulgaris (IFO 3045); experiment: MIC, agar dilution, Proteus vulgaris; conditions: Proteus vulgaris, IFO3045, 20 h, read-out: Minimum Inhibitory Concentration (MIC)
Description: as §1

[2] = test system: Proteus mirabilis (IFO 3849); experiment: MIC, agar dilution, Proteus mirabilis; conditions: Proteus mirabilis, IFO3849, 20 h, read-out: Minimum Inhibitory Concentration (MIC)
Description: as §1

[3] = test system: Proteus morgani (IFO 3848); experiment: MIC, agar dilution, Proteus morgani; conditions: Morganella morganii, IFO3848, 20 h, read-out: Minimum Inhibitory Concentration (MIC)
Description: as §1

[4] = test system: Pseudomonas aeruginosa (ATCC 15692); experiment: MIC, agar dilution, Pseudomonas aeruginosa ATCC 15692; conditions: read-out: Minimum Inhibitory Concentration (MIC)
Description: as §1

For `CC1(C)S[C@@H]2[C@H](NC(=O)[C@H](NC(=O)[C@@H]3CCCN3)c3ccc(O)cc3)C(=O)N2[C@H]1C(=O)O` [Compound 4], the MIC (Staph. aureus (FDA 209P)) was 1.25 µg/mL (≈ 2.7 µM), the MIC (E. coli (NIHJ)) was 25 µg/mL (≈ 54.1 µM) and the MIC [1] was 12.5 µg/mL (≈ 27 µM). It also gave an MIC [2] of 9 µg/mL (≈ 19.5 µM), an MIC [3] of 9 µg/mL (≈ 19.5 µM) and an MIC ([4]; ATCC15692, P. aeruginosa ATCC 15692, nutrient agar, 20 hours at 37° C.) of 50 µg/mL (≈ 108 µM).
`CC1(C)S[C@@H]2[C@H](NC(=O)[C@H](NC(=O)[C@H]3CCCN3)c3ccc(O)cc3)C(=O)N2[C@H]1C(=O)O` [Compound 3, 6-[D-2-(D-prolylamino)-2-(4-hydroxyphenyl)acetamido]penicillanic acid monohydrate] was tested, and the MIC (Staph. aureus (FDA 209P)) was 0.9 µg/mL, the MIC (E. coli (NIHJ)) was 6.2 µg/mL and the MIC [1] was 6.2 µg/mL. The MIC [2] was 2.2 µg/mL, the MIC [3] was 3.1 µg/mL and the MIC ([4]; ATCC15692, 20 h) was 6.2 µg/mL.

— patent publication US4220587A, “Amino acid derivatives of 6-(2-amino-2-arylacetamido)penicillanic acids” (Mitsubishi Chemical Industries, Limited, priority 1975, dated 1980)
